Laboratory results taken from patent US20250188030A1, “Biphenyl and Phenylpyridine Compounds” (Pfizer Inc., priority 2023, published 2025).
Like-named read-outs stand apart in the source and are kept apart here.

Legend:
[1] = test system: H3K9AC (HT1080 cells); experiment: H3K9AC Sandwich ELISA Assay in HT1080 cells (KAT2A primary cell-based screening assay); parameters: species or system Human
How it was run: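 HT1080 fibrosarcoma cells seeded 16 h, then treated 24 h at 37 °C with 10-point 1:3 compound dilutions (top 10 µM final, 0.1% DMSO). Acid lysates neutralized with butyrate/PMSF; H3K9ac measured by total-H3-capture sandwich ELISA with luminescent HRP readout, IC50 by four-parameter fit.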

[2] = test system: MM.1S cells; experiment: MM1.S 10 Day Proliferation Assay (CellTiter-Glo); assay type: cell-based, Human
Method: Human B lymphoblast cell line MM.1S was obtained from American Type Culture Collection (ATCC), Manassas, VA USA, Cat. MM.1S (ATCC® CRL-2974™). Cells were cultured in RPMI (Thermo Fisher Scientific/Gibco Life Technologies Cat. #111875-093) plus 10% (v/v) FBS (Thermo Fisher Scientific/Gibco Life Technologies Cat. #26140-079) and 1% Penicillin-Streptomycin (Thermo Fisher Scientific/Gibco Life Technologies Cat. #15070063) at 37° C. in 5% CO2.
MM1.S cells were trypsinized cell viability count performed, and cells suspended in complete media at 5,556 cells/ml. Cells were then seeded (90 μl/well) into a 96-well round black/clear bottom, ULA (Ultra-Low Attachment surface plate (Corning cat #4520) at a density of 500 cells/well. Cells were then incubated for 16 hours at 37° C. and 5% CO2. Compound dilution plates were prepared in 96-well, clear U-bottom, polypropylene plates (Corning 3365) in 100% DMSO at 10 mM stock concentration in duplicate wells, using a 10-point serial dilution (1:3 dilutions). Compounds were diluted to 1:100 in growth medium. Then 10 μl of diluted compounds were added to each well of the cell plates using a Beckman FX liquid handling system such that the highest compound concentration tested was 10 μM final, with a 0.1% final DMSO concentration in the total volume of 100 μl. Plates were incubated for 10 total days at 37° C. and 5% CO2. Fresh media containing compound was refreshed at 5 days treatment.
Finally, the treatment plates were removed from the incubator and 100 μl of CellTiter-Glo Luminescent reagent was added to each well, and plates were equilibrated in the dark for 30 minutes. Plates were read on the PHERAstar plate reader using the 96-well with Luminescent reading mode. IC50 values were calculated using a four-parameter fit with GraphPad Prism version 9.5.1 or in house modified IDBS ActivityBase data analyzing package.

[3] = target: KAT2A (Homo sapiens (Human), UniProt Q92830); experiment: KAT2A acetyltransferase biochemical assay (RapidFire mass spectrometry, AcCoA to CoA)
KAT2A, sequence (Q92830 whole entry): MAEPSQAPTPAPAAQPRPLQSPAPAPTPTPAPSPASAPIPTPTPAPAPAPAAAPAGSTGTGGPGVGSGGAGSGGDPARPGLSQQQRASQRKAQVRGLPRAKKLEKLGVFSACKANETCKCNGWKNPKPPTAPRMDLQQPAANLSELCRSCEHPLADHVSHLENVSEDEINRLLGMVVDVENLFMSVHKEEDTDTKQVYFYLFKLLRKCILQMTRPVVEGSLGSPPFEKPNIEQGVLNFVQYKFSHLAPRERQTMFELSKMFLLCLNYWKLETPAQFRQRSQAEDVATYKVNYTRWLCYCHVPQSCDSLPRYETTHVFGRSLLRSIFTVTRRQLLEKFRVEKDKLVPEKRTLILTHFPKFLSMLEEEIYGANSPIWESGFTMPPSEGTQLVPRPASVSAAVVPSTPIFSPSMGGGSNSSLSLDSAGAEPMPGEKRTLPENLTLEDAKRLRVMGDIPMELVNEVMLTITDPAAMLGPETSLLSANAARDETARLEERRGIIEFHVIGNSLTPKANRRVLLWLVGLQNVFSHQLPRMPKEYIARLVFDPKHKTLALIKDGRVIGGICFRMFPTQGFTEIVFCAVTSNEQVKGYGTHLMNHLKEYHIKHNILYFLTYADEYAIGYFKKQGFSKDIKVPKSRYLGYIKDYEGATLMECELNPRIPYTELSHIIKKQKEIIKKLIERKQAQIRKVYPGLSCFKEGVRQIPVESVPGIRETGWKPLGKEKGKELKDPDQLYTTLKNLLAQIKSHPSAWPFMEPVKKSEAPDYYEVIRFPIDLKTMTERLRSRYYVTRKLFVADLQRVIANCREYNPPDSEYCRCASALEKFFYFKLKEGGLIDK

[4] = Homo sapiens, HT-1080, H3K9AC sandwich ELISA
[5] = read-out: KAT2A Ki at 1 μM AcCoA, 5 μM H3 1-21 peptide, 0.5 nM KAT2A, 90-minute reaction

SMILES	IC50 [1, 4]	IC50 ([2]; Homo sapiens, MM1.S, 240 h)	Ki [3, 5]	IC50 ([1]; H3K9AC sandwich ELISA)	IC50 [2]	Ki ([3]; KAT2A Ki at 1 μM AcCoA, 5 μM H3 1-21 peptide, 0.5 nM KAT2A, 90-minute reaction)
CC(C)c1ccccc1-c1c(CC(=O)O)cccc1O[C@@H]1CC[C@@H](NC(=O)[C@@H]2CC(C)(C)CN2C)C1 (atropisomer, axis not shown) [Example H4, [(1ψ)-2′-(propan-2-yl)-6-({(1R,3R)-3-[(1,4,4-trimethyl-L-prolyl)amino]cyclopentyl}oxy)[1,1′-biphenyl]-2-yl]acetic acid]	112 nM	385 nM	42.8 nM			
CN1CC(C)(C)C[C@H]1C(=O)N[C@@H]1CC[C@@H](Oc2cccc(CC(=O)NS(C)(=O)=O)c2-c2ccccc2C2CCC2)C1 (atropisomer, axis not shown) [Example I4, N-[(1R,3R)-3-{[(1ψ)-2′-cyclobutyl-6-{2-[(methanesulfonyl)amino]-2-oxoethyl}[1,1′-biphenyl]-2-yl]oxy}cyclopentyl]-1,4,4-trimethyl-L-prolinamide]		249 nM	24.2 nM	23.2 nM		
CN1CC(C)(C)C[C@H]1C(=O)N[C@@H]1CC[C@@H](Oc2cccc(CC(=O)NS(N)(=O)=O)c2-c2ccccc2C2CCC2)C1 (atropisomer, axis not shown) [Example I5, N-[(1R,3R)-3-({(1ψ)-2′-cyclobutyl-6-[2-oxo-2-(sulfamoylamino)ethyl][1,1′-biphenyl]-2-yl}oxy)cyclopentyl]-1,4,4-trimethyl-L-prolinamide]	59 nM	88.7 nM	13.6 nM			
CN1CC2(CCCC2)C[C@H]1C(=O)N[C@@H]1CC[C@@H](Oc2cccc(C(=O)NS(C)(=O)=O)c2-c2cccc(F)c2C2CCC2)C1 (atropisomer, axis not shown) [Example I10, (3ξ)-N-[(1R,3R)-3-({(1ψ)-2′-cyclobutyl-3′-fluoro-6-[(methanesulfonyl)carbamoyl][1,1′-biphenyl]-2-yl}oxy)cyclopentyl]-2-methyl-2-azaspiro[4.4]nonane-3-carboxamide]	63.8 nM	359 nM	6.29 nM			
CN1CC(C)(C)C[C@H]1C(=O)N[C@@H]1CC[C@@H](Oc2cccc(C(=O)NS(=O)(=O)N3CCC3)c2-c2cccc(F)c2C2CCC2)C1 (atropisomer, axis not shown) [Example I13, N-[(1R,3R)-3-({(1ψ)-6-[(azetidine-1-sulfonyl)carbamoyl]-2′-cyclobutyl-3′-fluoro[1,1′-biphenyl]-2-yl}oxy)cyclopentyl]-1,4,4-trimethyl-L-prolinamide]	24.5 nM	238 nM	25 nM			
CCN(C)S(=O)(=O)NC(=O)c1cccc(O[C@@H]2CC[C@@H](NC(=O)[C@@H]3CC(C)(C)CN3C)C2)c1-c1cccc(F)c1C1CCC1 (atropisomer, axis not shown) [Example I14, N-[(1R,3R)-3-{[(1ψ)-2′-cyclobutyl-6-{[ethyl(methyl)sulfamoyl]carbamoyl}-3′-fluoro[1,1′-biphenyl]-2-yl]oxy}cyclopentyl]-1,4,4-trimethyl-L-prolinamide]	18.1 nM	69.3 nM	33.9 nM			
CC(C)S(=O)(=O)NC(=O)Cc1cccc(O[C@@H]2CC[C@@H](NC(=O)[C@@]3(F)CNC4(CCC4)C3)C2)c1-c1cccc(F)c1C1CCC1 (atropisomer, axis not shown) [Example I16, (7S)-N-[(1R,3R)-3-({(1ψ)-2′-cyclobutyl-3′-fluoro-6-[2-oxo-2-(propane-2-sulfonamido)ethyl][1,1′-biphenyl]-2-yl}oxy)cyclopentyl]-7-fluoro-5-azaspiro[3.4]octane-7-carboxamide]		31.1 nM	0.03 nM	5.8 nM		
CN(C)S(=O)(=O)NC(=O)Cc1cccc(O[C@@H]2CC[C@@H](NC(=O)[C@@]3(F)CNC4(CCC4)C3)C2)c1-c1cccc(F)c1C1CCC1 (atropisomer, axis not shown) [Example I17, (7S)-N-[(1R,3R)-3-({(1ψ)-2′-cyclobutyl-6-[2-(dimethylsulfamamido)-2-oxoethyl]-3′-fluoro[1,1′-biphenyl]-2-yl}oxy)cyclopentyl]-7-fluoro-5-azaspiro[3.4]octane-7-carboxamide]		1.8 nM	0.02 nM	0.6 nM		
CC1(C)C[C@](F)(C(=O)N[C@@H]2CC[C@@H](Oc3ccc(C(C)(C)C(=O)O)cc3-c3cccc(F)c3C3CCC3)C2)CN1 (single isomer, unassigned) [Example A4]	76.4 nM	147 nM	4.12 nM			
CC(C)(C(=O)O)c1ccc(O[C@@H]2CC[C@@H](NC(=O)[C@@]3(F)CNC4(CCCC4)C3)C2)c(-c2cccc(F)c2C2CCC2)c1 (single isomer, unassigned) [Example A5]		7560 nM	1800 nM			
O=C(O)Cc1ccc(O[C@@H]2CC[C@@H](NC(=O)[C@@]3(F)CNC4(CCC4)C3)C2)c(-c2cccc(F)c2C2CCC2)c1 (single isomer, unassigned) [Example A7]	4.45 nM	30.9 nM	1.25 nM			
CC[C@](C)(C(=O)O)c1ccc(O[C@@H]2CC[C@@H](NC(=O)[C@]3(F)CNC4(CCC4)C3)C2)c(-c2cccc(F)c2C2CCC2)c1 (single isomer, unassigned) [Example A9]			0.84 nM	11.1 nM	135 nM	
CC[C@](C)(C(=O)O)c1ccc(O[C@@H]2CC[C@@H](NC(=O)[C@]3(F)CNC4(CCC4)C3)C2)c(-c2cccc(F)c2C2CCC2)c1 (single isomer, unassigned) [Example A12]			1.78 nM	28.8 nM	368 nM	
CC1(C)C[C@@](F)(C(=O)N[C@@H]2CC[C@@H](Oc3ccc(C(=O)O)cc3-c3cccc(F)c3C3CCC3)C2)CN1 (single isomer, unassigned) [Example A14]		157 nM	1.32 nM	4.88 nM		
C[C@H](C(=O)O)c1ccc(O[C@@H]2CC[C@@H](NC(=O)[C@@]3(F)CNC4(CCC4)C3)C2)c(-c2cccc(F)c2C2CCC2)c1 (single isomer, unassigned) [Example A19]	10 nM		2.4 nM		431 nM	
C[C@H](C(=O)O)c1ccc(O[C@@H]2CC[C@@H](NC(=O)[C@@]3(F)CNC4(CCC4)C3)C2)c(-c2cccc(F)c2C2CCC2)c1 (single isomer, unassigned) [Example A20]			2.53 nM	9.3 nM	186 nM	
CC(C)c1ccccc1-c1cc(C(=O)O)ccc1O[C@@H]1CC[C@@H](NC(=O)[C@@]2(F)CNC3(CCCC3)C2)C1 (single isomer, unassigned) [Example A41]				3 nM	9.2 nM	
CN1CC(C)(C)CC1C(=O)N[C@H]1C[C@H](COc2ccc(CC(=O)NS(C)(=O)=O)cc2-c2cccc(F)c2C2CCC2)C1 (stereo partly drawn) [Example G1, N-[(1r,3S)-3-{[(2′-cyclobutyl-3′-fluoro-5-{2-[(methanesulfonyl)amino]-2-oxoethyl}[1,1′-biphenyl]-2-yl)oxy]methyl}cyclobutyl]-1,4,4-trimethyl-L-prolinamide]	55.2 nM		2.55 nM			
CN(C)S(=O)(=O)NC(=O)c1cccc(O[C@@H]2CC[C@@H](NC(=O)[C@@]3(F)CNC4(CCC4)C3)C2)c1-c1cccc(F)c1C1CCC1 [Example I20, (7S)-N-[(1R,3R)-3-({(1ψ)-2′-cyclobutyl-6-[(dimethylsulfamoyl)carbamoyl]-3′-fluoro[1,1′-biphenyl]-2-yl}oxy)cyclopentyl]-7-fluoro-5-azaspiro[3.4]octane-7-carboxamide]			26.3 nM	51.9 nM		
CN1CC(C)(C)C[C@H]1C(=O)N[C@@H]1CC[C@@H](Oc2ccc(-c3nn(C)cc3CC(=O)O)cc2-c2cccc(F)c2C2CCC2)C1 [Example J8, {3-[2′-cyclobutyl-3′-fluoro-6-({(1R,3R)-3-[(1,4,4-trimethyl-L-prolyl)amino]cyclopentyl}oxy)[1,1′-biphenyl]-3-yl]-1-methyl-1H-pyrazol-4-yl}acetic acid]	2.71 nM		0.74 nM			
CN1CC(C)(C)C[C@H]1C(=O)N[C@H]1C[C@H](Oc2ccc(C(C)(C)C(=O)O)cc2-c2cccc(F)c2C2CCC2)C[C@H]1O [Example K1, 2-[2′-cyclobutyl-3′-fluoro-6-({(1S,3R,4S)-3-hydroxy-4-[(1,4,4-trimethyl-L-prolyl)amino]cyclopentyl}oxy)[1,1′-biphenyl]-3-yl]-2-methylpropanoic acid]	5.19 nM					0.15 nM
